Data as given in PMC8307647, “Bio-Guided Fractionation of Stem Bark Extracts from Phyllanthus muellarianus: Identification of Phytocomponents with Anti-Cholinesterase Activity” (Molecules, 2021).
Like-named read-outs stand apart in the source and are kept apart here.

Assays:
[1] = target: BuChE from human serum (Homo sapiens, UniProt P06276); assay: biochemical; format: biochemical; conditions: for inhibition at 100 µg/mL: read-out: Inhibition hBuChE at 100 µg/mL % ± SD
[2] = test system: human cholinesterases; conditions: cited from earlier work
[3] = test system: Aβ; conditions: cited from earlier work
[4] = target: Human recombinant AChE (Homo sapiens, UniProt P22303); assay: biochemical; conditions: for inhibition at 100 µg/mL: read-out: Inhibition hAChE at 100 µg/mL % ± SD
Sequence of Human recombinant AChE (P22303 32-614): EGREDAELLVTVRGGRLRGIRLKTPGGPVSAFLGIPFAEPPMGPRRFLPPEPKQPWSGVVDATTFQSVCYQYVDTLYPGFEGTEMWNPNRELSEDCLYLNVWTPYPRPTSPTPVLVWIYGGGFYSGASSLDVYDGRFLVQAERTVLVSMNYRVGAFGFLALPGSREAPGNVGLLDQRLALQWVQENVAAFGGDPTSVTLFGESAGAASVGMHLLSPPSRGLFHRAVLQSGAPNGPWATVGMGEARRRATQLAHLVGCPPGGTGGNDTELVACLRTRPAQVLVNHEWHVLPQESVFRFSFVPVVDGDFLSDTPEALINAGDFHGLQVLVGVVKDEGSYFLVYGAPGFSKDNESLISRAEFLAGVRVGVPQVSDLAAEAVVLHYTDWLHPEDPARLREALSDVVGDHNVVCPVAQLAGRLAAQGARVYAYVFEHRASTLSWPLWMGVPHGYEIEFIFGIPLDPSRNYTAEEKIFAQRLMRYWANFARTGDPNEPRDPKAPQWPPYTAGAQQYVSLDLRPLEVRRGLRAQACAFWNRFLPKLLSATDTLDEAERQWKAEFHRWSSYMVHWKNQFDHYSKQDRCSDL

[5] = test system: T1, Aβ1–42; assay: Inhibition of Aβ1–42 self-aggregation, thioflavin T fluorescence assay; format: biochemical; conditions: 1:1 molar ratio with Aβ (50 μM), 30 °C, 24 h
T1 construct: 42-aminoacid long Aβ peptide (Aβ1–42) self-aggregation; purchased Bachem AG, Bubendorf, Switzerland
Method: As reported in the previously published protocol by Bartolini et al., 1,1,1,3,3,3,hexafluoro 2-propanol pre-treated Aβ1–42 samples (Bachem AG, Bubendorf, Switzerland) were solubilized with a AcCN/0.3 mM Na2CO3/250 mM NaOH (48.4/48.4/3.2) mixture to obtain a 500 μM stock solution. Experiments were performed by diluting (final Aβ concentration 50 μM) and incubating the peptide in 10 mM phosphate buffer (pH = 8.0) containing 10 mM NaCl, at 30 °C for 24 h with and without nitidine (50 μM, Aβ/nitidine = 1/1). A blank sample containing nitidine was also prepared. To quantify amyloid fibril formation, the thioflavin T fluorescence method was used. After incubation, samples were diluted to a final volume of 2.0 mL with 50 mM glycine-NaOH buffer (pH 8.5) containing 1.5 μM thioflavin T. A 300-second time scan of fluorescence intensity was carried out (λexc = 446 nm; λem = 490 nm, FP-6200 fluorometer, Jasco Europe, Cremella, Italy), and values at plateau were averaged after subtracting the background fluorescence of 1.5 μM thioflavin T solution. The fluorescence intensities obtained in the absence and in the presence of nitidine were compared and the percent inhibition due to the presence of nitidine was calculated by the following formula: 100 − (100 × IFi/IFo), where IFi and IFo are the fluorescence intensities obtained for Aβ1–42 in the presence and in the absence of nitidine, respectively.

[6] = test system: male Swiss mice; parameters: method as in PMID 29186770; conditions: single dose 20 mg kg−1 b.w.; cited from earlier work

Sequence of BuChE from human serum (P06276 29-602): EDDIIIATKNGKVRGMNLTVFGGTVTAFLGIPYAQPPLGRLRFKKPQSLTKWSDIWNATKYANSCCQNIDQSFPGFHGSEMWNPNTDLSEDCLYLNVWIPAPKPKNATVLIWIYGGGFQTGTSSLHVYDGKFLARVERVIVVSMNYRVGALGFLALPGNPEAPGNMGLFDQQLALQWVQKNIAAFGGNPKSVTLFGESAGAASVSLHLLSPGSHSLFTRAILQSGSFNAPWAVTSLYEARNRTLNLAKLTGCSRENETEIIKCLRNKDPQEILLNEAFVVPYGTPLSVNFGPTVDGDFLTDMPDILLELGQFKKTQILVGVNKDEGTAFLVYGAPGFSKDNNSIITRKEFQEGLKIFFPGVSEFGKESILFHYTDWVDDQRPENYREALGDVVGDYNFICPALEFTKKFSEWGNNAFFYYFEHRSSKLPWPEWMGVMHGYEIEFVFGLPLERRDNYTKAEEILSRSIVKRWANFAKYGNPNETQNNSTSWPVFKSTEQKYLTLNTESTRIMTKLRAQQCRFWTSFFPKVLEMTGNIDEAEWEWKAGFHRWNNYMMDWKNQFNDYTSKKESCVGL

In the case of `COc1ccc2c3c1O[C@H]1C[C@@H](O)C=C[C@@]31CCN(C)C2` [Galanthamine, reference compound], the inhibition at 100 µg/mL [1] is reported as over 90%.

In the case of `COc1ccc2c(c[n+](C)c3c4cc5c(cc4ccc23)OCO5)c1OC` [chelerythrine, 1,2-dimethoxy-12-methyl[1,3]benzodioxolo[5,6-c]phenanthridin-12-ium], the “inhibition of human cholinesterases” value [2] is listed as “micromolar inhibitor” and the “inhibition of Aβ self-aggregation” value [3] is listed as “significantly inhibit”.

Work on `COc1cc2c[n+](C)c3c4cc5c(cc4ccc3c2cc1OC)OCO5` [Nitidine (PC3), 2,3-dimethoxy-12-methyl-[1,3]benzodioxolo[5,6-c]phenanthridin-12-ium] yielded an IC50 [4] of 5.31 ± 0.5 µM, an inhibition at 100 µg/mL [4] of over 90% and an IC50 [1] of 6.68 ± 0.13 µM. For the same compound, the inhibition at 100 µg/mL [1] was over 90% and the “inhibition percentage of Aβ1–42 self-aggregation” value [5] was 15.9 ± 1.0.

`COc1ccc2c(c1O)-c1c(O)c(OC)cc3c1[C@H](C2)[N+](C)(C)CC3` [Magnoflorine (PC1), Magnoflorine] gave an IC50 ([4]; read-out: IC50 hAChE µM ± SD) of 1120 ± 83 µM, an inhibition at 100 µg/mL [4] of 19 ± 2.9% and an IC50 ([1]; read-out: IC50 hBuChE µM ± SD) of 131 ± 9 µM. The inhibition at 100 µg/mL [1] was 69.9 ± 2.4%, the selectivity index ([1]; selective for hBuChE over hAChE) was 8.5 and the “cognitive functions in a passive avoidance test” value [6] was “significantly enhanced”. The “long-term scopolamine-induced memory impairment” value [6] was “able to reverse”.
